Activity calls are given as the source filed them. No cut-off for these calls is given here.
What was measured:
Candida albicans [1] = experiment: Antifungal activity against Candida albicans isolate 6 assessed as reduction in fungal growth incubated for 48 hrs by broth microdilution method; assay type: functional
Candida albicans [2] = experiment: Fungicidal activity against Candida albicans isolate 1 assessed as fungal killing incubated for 48 hrs followed by plating on SD agar plate; assay type: functional; conditions: read-out: MFC99.9
Candida albicans [3] = experiment: Antifungal activity against Candida albicans isolate 10 assessed as reduction in fungal growth incubated for 48 hrs by broth microdilution method; assay type: functional
Candida albicans [4] = experiment: Fungicidal activity against Candida albicans isolate 9 assessed as fungal killing incubated for 48 hrs followed by plating on SD agar plate; assay type: functional; conditions: read-out: MFC99.9
Candida albicans [5] = experiment: Fungicidal activity against Candida albicans isolate 12 assessed as fungal killing incubated for 48 hrs followed by plating on SD agar plate; assay type: functional; conditions: read-out: MFC99.9
Candida albicans [6] = experiment: Fungicidal activity against Candida albicans ATCC 10231 assessed as fungal killing incubated for 48 hrs followed by plating on SD agar plate; assay type: functional; conditions: read-out: MFC99.9
Candida albicans [7] = experiment: Antifungal activity against Candida albicans ATCC 18804 assessed as reduction in fungal growth incubated for 48 hrs by broth microdilution method; assay type: functional
Candida albicans [8] = experiment: Fungicidal activity against Candida albicans ATCC 18804 assessed as fungal killing incubated for 48 hrs followed by plating on SD agar plate; assay type: functional; conditions: read-out: MFC99.9
Candida albicans [9] = experiment: Antifungal activity against Candida albicans ATCC 10231 assessed as reduction in fungal growth incubated for 48 hrs in presence of sorbitol by broth microdilution method; assay type: functional
Candida albicans [10] = experiment: Antibiofilm activity against Candida albicans ATCC 10231 assessed as reduction in biofilm formation at 0.24 to 7.81 ug/ml by crystal violet staining based spectrophotometric analysis; assay type: functional, organism-based; conditions: dose 0.24-7.81 µg/ml
Nakaseomyces glabratus [11] = experiment: Antifungal activity against Candida glabrata ATCC 2001 assessed as reduction in fungal growth incubated for 48 hrs in presence of sorbitol by broth microdilution method; assay type: functional
Candida albicans [12] = experiment: Fungicidal activity against Candida albicans isolate 11 assessed as fungal killing incubated for 48 hrs followed by plating on SD agar plate; assay type: functional; conditions: read-out: MFC99.9
Candida albicans [13] = experiment: Antifungal activity against Candida albicans isolate 12 assessed as reduction in fungal growth incubated for 48 hrs by broth microdilution method; assay type: functional
Pichia kudriavzevii [14] = experiment: Antifungal activity against Candida krusei ATCC 34135 assessed as reduction in fungal growth incubated for 48 hrs in presence of ergosterol by broth microdilution method; assay type: functional
Pichia kudriavzevii [15] = experiment: Antifungal activity against Candida krusei ATCC 34135 assessed as reduction in fungal growth incubated for 48 hrs by broth microdilution method; assay type: functional
Candida tropicalis [16] = experiment: Antifungal activity against Candida tropicalis ATCC 28707 assessed as reduction in fungal growth incubated for 48 hrs in presence of sorbitol by broth microdilution method; assay type: functional
Candida albicans [17] = experiment: Antifungal activity against Candida albicans isolate 9 assessed as reduction in fungal growth incubated for 48 hrs by broth microdilution method; assay type: functional
Candida albicans [18] = experiment: Fungicidal activity against Candida albicans isolate 8 assessed as fungal killing incubated for 48 hrs followed by plating on SD agar plate; assay type: functional; conditions: read-out: MFC99.9
Candida albicans [19] = experiment: Antifungal activity against Candida albicans isolate 2 assessed as reduction in fungal growth incubated for 48 hrs by broth microdilution method; assay type: functional
Candida albicans [20] = experiment: Fungicidal activity against Candida albicans isolate 7 assessed as fungal killing incubated for 48 hrs followed by plating on SD agar plate; assay type: functional; conditions: read-out: MFC99.9
Candida albicans [21] = experiment: Fungicidal activity against Candida albicans isolate 4 assessed as fungal killing incubated for 48 hrs followed by plating on SD agar plate; assay type: functional; conditions: read-out: MFC99.9
Nakaseomyces glabratus [22] = experiment: Antifungal activity against Candida glabrata ATCC 2001 assessed as reduction in fungal growth incubated for 48 hrs by broth microdilution method; assay type: functional
Candida albicans [23] = experiment: Antifungal activity against Candida albicans isolate 8 assessed as reduction in fungal growth incubated for 48 hrs by broth microdilution method; assay type: functional
Candida albicans [24] = experiment: Antifungal activity against Candida albicans isolate 11 assessed as reduction in fungal growth incubated for 48 hrs by broth microdilution method; assay type: functional
Candida albicans [25] = experiment: Fungicidal activity against Candida albicans ATCC 10231 assessed as reduction in fungal load at 31.25 ug/ml incubated for 12 hrs followed by inoculation on SD agar plate for 48 hrs by time-kill assay; assay type: functional, organism-based; conditions: dose 31.25 µg/ml, time 60.0 hrs
Candida albicans [26] = experiment: Antifungal activity against Candida albicans isolate 4 assessed as reduction in fungal growth incubated for 48 hrs by broth microdilution method; assay type: functional
Pichia kudriavzevii [27] = experiment: Antifungal activity against Candida krusei ATCC 34135 assessed as reduction in fungal growth incubated for 48 hrs in presence of sorbitol by broth microdilution method; assay type: functional
Candida albicans [28] = experiment: Antifungal activity against Candida albicans ATCC 10231 assessed as reduction in fungal growth incubated for 48 hrs by broth microdilution method; assay type: functional
Nakaseomyces glabratus [29] = experiment: Antifungal activity against Candida glabrata ATCC 2001 assessed as reduction in fungal growth incubated for 48 hrs in presence of ergosterol by broth microdilution method; assay type: functional
Candida albicans [30] = experiment: Antifungal activity against Candida albicans isolate 5 assessed as reduction in fungal growth incubated for 48 hrs by broth microdilution method; assay type: functional
Candida albicans [31] = experiment: Fungicidal activity against Candida albicans isolate 13 assessed as fungal killing incubated for 48 hrs followed by plating on SD agar plate; assay type: functional; conditions: read-out: MFC99.9
Candida albicans [32] = experiment: Fungicidal activity against Candida albicans isolate 6 assessed as fungal killing incubated for 48 hrs followed by plating on SD agar plate; assay type: functional; conditions: read-out: MFC99.9
Candida albicans [33] = experiment: Antifungal activity against Candida albicans isolate 13 assessed as reduction in fungal growth incubated for 48 hrs by broth microdilution method; assay type: functional
Candida albicans [34] = experiment: Antibiofilm activity against Candida albicans ATCC 10231 assessed as reduction in mature biofilm at 125 ug/ml incubated for 48 hrs by crystal violet staining based spectrophotometric analysis relative to control; assay type: functional
Candida albicans [35] = experiment: Disruption of cell membrane in Candida albicans ATCC 10231 assessed as increase in intracellular leakage at MIC incubated for 24 hrs by UV spectrophotometric analysis; assay type: cell-based
Candida albicans [36] = experiment: Fungicidal activity against Candida albicans isolate 10 assessed as fungal killing incubated for 48 hrs followed by plating on SD agar plate; assay type: functional; conditions: read-out: MFC99.9
Candida tropicalis [37] = experiment: Antifungal activity against Candida tropicalis ATCC 28707 assessed as reduction in fungal growth incubated for 48 hrs in presence of ergosterol by broth microdilution method; assay type: functional
Candida albicans [38] = experiment: Antifungal activity against Candida albicans ATCC 10231 assessed as inhibition of yeast to hypha morphological transition at 15.6 ug/ml measured upto 72 hrs by microscopic analysis; assay type: functional, organism-based; conditions: dose 15.6 µg/ml, time hrs <=72
Candida tropicalis [39] = experiment: Fungicidal activity against Candida tropicalis ATCC 28707 assessed as fungal killing incubated for 48 hrs followed by plating on SD agar plate; assay type: functional; conditions: read-out: MFC99.9
Candida albicans [40] = experiment: Antifungal activity against Candida albicans isolate 3 assessed as reduction in fungal growth incubated for 48 hrs by broth microdilution method; assay type: functional
Candida albicans [41] = experiment: Fungicidal activity against Candida albicans isolate 3 assessed as fungal killing incubated for 48 hrs followed by plating on SD agar plate; assay type: functional; conditions: read-out: MFC99.9
Candida albicans [42] = experiment: Antifungal activity against Candida albicans isolate 1 assessed as reduction in fungal growth incubated for 48 hrs by broth microdilution method; assay type: functional
Candida albicans [43] = experiment: Fungicidal activity against Candida albicans ATCC 10231 assessed as reduction in fungal load at 7.8 ug/ml incubated for 36 hrs followed by inoculation on SD agar plate for 48 hrs by time-kill assay; assay type: functional, organism-based; conditions: dose 7.8 µg/ml, time 84.0 hrs
Candida albicans [44] = experiment: Antifungal activity against Candida albicans isolate 7 assessed as reduction in fungal growth incubated for 48 hrs by broth microdilution method; assay type: functional
Candida tropicalis [45] = experiment: Disruption of cell membrane in Candida tropicalis ATCC 28707 assessed as increase in intracellular leakage at MIC incubated for 24 hrs by UV spectrophotometric analysis; assay type: cell-based
Candida albicans [46] = experiment: Antifungal activity against Candida albicans ATCC 10231 assessed as reduction in fungal growth incubated for 48 hrs in presence of ergosterol by broth microdilution method; assay type: functional
Pichia kudriavzevii [47] = experiment: Fungicidal activity against Candida krusei ATCC 34135 assessed as fungal killing incubated for 48 hrs followed by plating on SD agar plate; assay type: functional; conditions: read-out: MFC99.9
Candida tropicalis [48] = experiment: Antifungal activity against Candida tropicalis ATCC 28707 assessed as reduction in fungal growth incubated for 48 hrs by broth microdilution method; assay type: functional
Candida albicans [49] = experiment: Fungicidal activity against Candida albicans isolate 2 assessed as fungal killing incubated for 48 hrs followed by plating on SD agar plate; assay type: functional; conditions: read-out: MFC99.9
Candida albicans [50] = experiment: Fungicidal activity against Candida albicans isolate 5 assessed as fungal killing incubated for 48 hrs followed by plating on SD agar plate; assay type: functional; conditions: read-out: MFC99.9
Pichia kudriavzevii [51] = experiment: Disruption of cell membrane in Candida krusei ATCC 34135 assessed as increase in intracellular leakage at MIC incubated for 24 hrs by UV spectrophotometric analysis; assay type: cell-based
Nakaseomyces glabratus [52] = experiment: Fungicidal activity against Candida glabrata ATCC 2001 assessed as fungal killing incubated for 48 hrs followed by plating on SD agar plate; assay type: functional; conditions: read-out: MFC99.9
Nakaseomyces glabratus [53] = experiment: Disruption of cell membrane in Candida glabrata ATCC 2001 assessed as increase in intracellular leakage at MIC incubated for 24 hrs by UV spectrophotometric analysis; assay type: cell-based
[54] = Toxicity in iv dosed mouse measured for 24 hrs; assay type: organism-based; conditions: in vivo
[55] = Toxicity in po dosed mouse measured for 24 hrs; assay type: organism-based; conditions: in vivo

For `CCCC[n+]1cccc(CCCOCCCCCCCCCCCCN=[N+]=[N-])c1.[I-]`, the MIC (Candida albicans [1]) was 15.6 µg/mL, the MFC (Candida albicans [2]) was 62.5 µg/mL and the MIC (Candida albicans [3]) was 15.6 µg/mL. The MFC (Candida albicans [4]) was 31.2 µg/mL, the MFC (Candida albicans [5]) was 7.8 µg/mL and the MFC (Candida albicans [6]) was 31.2 µg/mL. It also gave an MIC (Candida albicans [7]) of 7.8 µg/mL, an MFC (Candida albicans [8]) of 125 µg/mL and an MIC (Candida albicans [9]) of 7.8 µg/mL. The Activity (Candida albicans [10]) was “Active”, the MIC (Nakaseomyces glabratus [11]) was 7.8 µg/mL and the MFC (Candida albicans [12]) was 7.8 µg/mL. For the same molecule, the MIC (Candida albicans [13]) was 7.8 µg/mL, the MIC (Pichia kudriavzevii [14]) was 3.9 µg/mL and the MIC (Pichia kudriavzevii [15]) was 3.9 µg/mL. It also gave an MIC (Candida tropicalis [16]) of 7.8 µg/mL, an MIC (Candida albicans [17]) of 15.6 µg/mL and an MFC (Candida albicans [18]) of 7.8 µg/mL. It also gave an MIC (Candida albicans [19]) of 7.8 µg/mL, an MFC (Candida albicans [20]) of 7.8 µg/mL and an MFC (Candida albicans [21]) of 3.9 µg/mL. For the same molecule, the MIC (Nakaseomyces glabratus [22]) was 7.8 µg/mL, the MIC (Candida albicans [23]) was 3.9 µg/mL and the MIC (Candida albicans [24]) was 7.8 µg/mL. The Activity (Candida albicans [25]) was “Active”, the MIC (Candida albicans [26]) was 1.95 µg/mL and the MIC (Pichia kudriavzevii [27]) was 3.9 µg/mL. For the same molecule, the MIC (Candida albicans [28]) was 7.8 µg/mL, the MIC (Nakaseomyces glabratus [29]) was 15.6 µg/mL and the MIC (Candida albicans [30]) was 3.9 µg/mL. For the same molecule, the MFC (Candida albicans [31]) was 7.8 µg/mL, the MFC (Candida albicans [32]) was 31.2 µg/mL and the MIC (Candida albicans [33]) was 7.8 µg/mL. The inhibition at 125 µg/mL (Candida albicans [34]) was 50%, the Activity (Candida albicans [35]) was “Active” and the MFC (Candida albicans [36]) was 31.2 µg/mL. The MIC (Candida tropicalis [37]) was 7.8 µg/mL, the Activity (Candida albicans [38]) was “Active” and the MFC (Candida tropicalis [39]) was 15.6 µg/mL. The MIC (Candida albicans [40]) was 3.9 µg/mL, the MFC (Candida albicans [41]) was 3.9 µg/mL and the MIC (Candida albicans [42]) was 7.8 µg/mL. The Activity (Candida albicans [43]) was “Active”, the MIC (Candida albicans [44]) was 7.8 µg/mL and the Activity (Candida tropicalis [45]) was “Active”. It also gave an MIC (Candida albicans [46]) of 7.8 µg/mL, an MFC (Pichia kudriavzevii [47]) of 3.9 µg/mL and an MIC (Candida tropicalis [48]) of 7.8 µg/mL. The MFC (Candida albicans [49]) was 7.8 µg/mL, the MFC (Candida albicans [50]) was 3.9 µg/mL and the Activity (Pichia kudriavzevii [51]) was “Active”. For the same molecule, the MFC (Nakaseomyces glabratus [52]) was 15.6 µg/mL and the Activity (Nakaseomyces glabratus [53]) was “Active”.
Work on `COc1cc2c(cc1OC)[C@@H]1N(C)Cc3c(cc(OC)c4c3OCO4)[C@]1(C)[C@H](O)C2` yielded an LD50 at 24 h [54] of 41.6 mg/kg and an LD50 at 24 h [55] of 800 mg/kg.

Reference: ChEMBL document CHEMBL4732126, “Design, synthesis, and biodistribution studies of new analogues of marine alkaloids: Potent in vitro and in vivo fungicidal agents against Candida spp” (Eur J Med Chem, 2021)
